Experimental data reported in publication PMC5589878, “Development of Fluorescent Probes that Target Serotonin 5-HT2B Receptors” (Scientific Reports, 2017).

Key:
5-HT2A receptors [1] = biological target: T1, 5-HT2A receptors (Homo sapiens, UniProt P28223); test: Radioligand competition binding assay at human 5-HT2A receptors; set-up: expressed in transfected cells; host or cells: CHO-FA4-5-HT2A cells (membranes)
5-HT2B receptors [2] = biological target: T2, 5-HT2B receptors (Homo sapiens, UniProt P41595); test: Radioligand competition binding assay at human 5-HT2B receptors
5-HT2B receptors [3] = biological target: T2, 5-HT2B receptors; type: cell-based; details: 3 μM, 10 min at 37 °C; image analysis and plate reader; p < 0.001
Description: Having finished the preliminary photophysical and pharmacological characterization of the fluorescent derivatives 12a–i, their potential to specifically label 5-HT2B receptors in live cells was evaluated. Chinese hamster ovary K1 (CHO-K1) cells and CHO-K1 cells stably expressing the human serotonin 5-HT2B receptor (CHO-K1-5-HT2B), growing in 96-well plates, were incubated with at least three different concentrations of each compound for varying times and, after compound removal and washing of the cells, plates were subjected to fluorescence microscopy using a high content imaging instrument and the appropriate excitation and emission filter set for each compound.
For cell labelling studies, cells were plated onto 96-well plates (Cell Carrier; Perkin-Elmer, Waltham, MA, USA) pre-treated with poly-D-lysine hydrobromide 0.1 mg/mL (Sigma Aldrich, Spain) at a density of 10000 cells/well and cultured for 24 h. […] Fluorescence images were acquired using an Operetta high content imaging instrument (Perkin-Elmer, Waltham, MA, USA) at 20x and 40x magnification, at excitation wavelengths of 520–550 nm and emission wavelengths of 560–630 nm (standard 5-TAMRA filter set) for compound 12i, and excitation wavelengths of 360–400 nm and emission wavelengths of 410–480 nm for Hoechst 33342 (standard Hoechst 33342 filter set). […]

5-HT2A receptors [4] = biological target: T1, 5-HT2A receptors; test: Labelling of 5-HT2A receptors in live CHO-FA4-5-HT2A cells (fluorescence microscopy, plate reader); type: cell-based; set-up: expressed in transfected cells; host or cells: CHO-FA4-5-HT2A cells (live)
Description: The specificity and sensitivity of the 12i probe towards 5-HT2B receptors over other 5-HT2 receptor subtypes was evaluated by performing similar labelling experiments in CHO cells stably expressing 5-HT2A receptors (CHO-FA4-5-HT2A). […] However, even in these conditions (20 μM concentration of 12i) the signal window over background achieved for 5-HT2A labelling was considerably smaller than that detected in the case of 5-HT2B labelling at a concentration of 12i more than 6 times lower (3 μM) (Fig. 9 and Supplementary Figure S3).
For cell labelling studies, cells were plated onto 96-well plates (Cell Carrier; Perkin-Elmer, Waltham, MA, USA) pre-treated with poly-D-lysine hydrobromide 0.1 mg/mL (Sigma Aldrich, Spain) at a density of 10000 cells/well and cultured for 24 h. […] Fluorescence images were acquired using an Operetta high content imaging instrument (Perkin-Elmer, Waltham, MA, USA) at 20x and 40x magnification, at excitation wavelengths of 520–550 nm and emission wavelengths of 560–630 nm (standard 5-TAMRA filter set) for compound 12i, and excitation wavelengths of 360–400 nm and emission wavelengths of 410–480 nm for Hoechst 33342 (standard Hoechst 33342 filter set).
The fluorescence intensity of the cells labelled with compound 12i was quantified by image analysis of the acquired images using Harmony v3.5 software (Perkin-Elmer). […]

human 5-HT2C receptors = biological target: T3, human 5-HT2C receptors (Homo sapiens, UniProt P28335); test: Radioligand competition binding assay at human 5-HT2C receptors
T3 construct: expressed in transfected cells; host or cells: HeLa-5-HT2C cells (membranes)
T3 sequence (P28335 33-458): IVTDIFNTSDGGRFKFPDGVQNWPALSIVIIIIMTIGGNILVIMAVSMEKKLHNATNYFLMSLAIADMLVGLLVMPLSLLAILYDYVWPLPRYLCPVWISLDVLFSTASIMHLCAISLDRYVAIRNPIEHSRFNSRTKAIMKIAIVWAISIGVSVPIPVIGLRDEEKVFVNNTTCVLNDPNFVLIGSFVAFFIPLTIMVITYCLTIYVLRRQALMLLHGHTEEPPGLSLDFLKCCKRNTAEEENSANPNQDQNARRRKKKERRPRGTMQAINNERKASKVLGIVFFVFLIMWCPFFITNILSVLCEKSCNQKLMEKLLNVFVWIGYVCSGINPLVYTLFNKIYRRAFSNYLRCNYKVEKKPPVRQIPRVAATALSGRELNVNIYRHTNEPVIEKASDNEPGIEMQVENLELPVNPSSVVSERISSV

5-HT2B receptors [5] = biological target: T2, 5-HT2B receptors; test: Functional assay of IPs accumulation at human 5-HT2B receptors; type: cell-based
Description: After 24 h, growth medium was replaced by serum-free medium containing 10 μCi/mL [^3H]myo-inositol (20.3 Ci/mmol, Perkin-Elmer) for 24 h. […] After the incubation time, assay buffer was discarded and 200 μL of 100 mM formic acid was added to the cells for 30 min at 4 °C and 20 μL of the lysate were transferred to a flexiplate plate (Perkin-Elmer, Waltham, MA, USA) together with 80 μL of a solution of RNA Binding YSi SPA Beads (Perkin-Elmer, Waltham, MA, USA) to measure accumulation of [^3H]IPs (IP1,IP2, and IP3, collectively referred to as IPs).

[6] = Absorption and emission spectra (photophysical properties); type: physicochemical; details: 10 μM solutions
Description: The absorption and emission spectra of the fluorescent 5-HT2 ligands (10 and 12) were determined on 10 μM solutions. The most relevant fluorescent properties are collected in Fig. 5. All of the synthesized derivatives emitted fluorescence in the visible region of the spectrum, with selected fluorescent tags (Fig. 4) providing distinctive properties and excitation wavelengths. The excitation wavelengths varied from 305 to 555 nm, whereas those for emission varied from 398 to 580 nm.

[7] = tested on: tumor necrosis factor alpha (TNF-α); details: primary aortic smooth muscle cells and animal models; cited from earlier work

T2 sequence (P41595 whole entry): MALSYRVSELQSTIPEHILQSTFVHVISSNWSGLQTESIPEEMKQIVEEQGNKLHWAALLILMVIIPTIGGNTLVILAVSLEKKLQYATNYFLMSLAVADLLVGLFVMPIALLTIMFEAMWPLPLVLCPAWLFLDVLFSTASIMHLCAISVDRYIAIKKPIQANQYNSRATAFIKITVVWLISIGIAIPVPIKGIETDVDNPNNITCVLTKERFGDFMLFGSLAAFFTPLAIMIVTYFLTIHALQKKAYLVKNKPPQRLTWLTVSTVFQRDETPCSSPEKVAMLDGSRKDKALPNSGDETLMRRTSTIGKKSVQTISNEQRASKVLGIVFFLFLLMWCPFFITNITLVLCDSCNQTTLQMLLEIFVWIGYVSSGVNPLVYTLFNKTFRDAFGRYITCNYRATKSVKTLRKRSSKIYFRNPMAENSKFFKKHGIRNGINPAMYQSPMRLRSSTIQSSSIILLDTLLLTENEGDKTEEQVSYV
T1 sequence (P28223 whole entry): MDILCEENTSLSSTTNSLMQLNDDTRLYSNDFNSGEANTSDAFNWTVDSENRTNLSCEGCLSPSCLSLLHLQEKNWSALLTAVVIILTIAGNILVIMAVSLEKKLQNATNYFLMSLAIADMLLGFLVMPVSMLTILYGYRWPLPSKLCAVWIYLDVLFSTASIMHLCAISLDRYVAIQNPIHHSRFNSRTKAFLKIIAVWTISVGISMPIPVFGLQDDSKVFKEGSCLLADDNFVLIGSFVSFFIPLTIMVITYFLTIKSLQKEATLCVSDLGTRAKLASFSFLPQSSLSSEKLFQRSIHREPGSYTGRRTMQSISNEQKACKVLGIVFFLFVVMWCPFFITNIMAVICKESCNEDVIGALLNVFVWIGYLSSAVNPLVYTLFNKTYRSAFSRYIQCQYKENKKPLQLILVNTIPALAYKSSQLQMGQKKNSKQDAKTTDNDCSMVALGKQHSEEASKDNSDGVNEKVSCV

SMILES	Ki (5-HT2A receptors [1]) [nM]	melting point [°C]	Ki (5-HT2B receptors [2]) [nM]	fluorescence intensity of CHO-K1-5-HT2B cell wells versus control CHO-K1 cell wells (5-HT2B receptors [3])	specific labelling of 5-HT2A receptors in CHO-FA4-5-HT2A cells (5-HT2A receptors [4]; 3 μM)	specific labelling of 5-HT2A receptors in CHO-FA4-5-HT2A cells (5-HT2A receptors [4]; 20 μM)	Ki (human 5-HT2C receptors) [nM]	EC50 (5-HT2B receptors [5]) [nM]	Δλ (Stokes shift) [6] [nm]	εmax [6] [M⁻¹ cm⁻¹]	λmax Abs [6] [nm]	λmax Em [6] [nm]	potency of blockade of the pro-inflammatory effects of TNF-α [7]
CCN(CC)c1ccc2c(-c3ccccc3C(=O)NCCC(=O)NCCC(=O)NCCCOCCOCCOCCCNC(=O)CCCOc3cc(I)c(OC)cc3CC(C)N)c3ccc(=[N+](CC)CC)cc-3oc2c1 (stereo not shown) [12i, N-(9-(2-((26-(2-(2-aminopropyl)-5-iodo-4-methoxyphenoxy)-3,7,23-trioxo-12,15,18-trioxa-4,8,22-triazahexacosyl)carbamoyl)phenyl)-6-(diethylamino)-3H-xanthen-3-ylidene)-N-ethylethanaminium]	1220	151 to 153	262	clearly superior	no statistically significant specific labelling	certain specific labelling	994	225	25	78828	555	580	
COc1cc(CC(C)N)c(OC)cc1I (stereo not shown) [DOI, 1-(2,5-Dimethoxy-4-iodophenyl)-propan-2-amine, reference compound]			48.2				18.2	11.7					≈ 15 pM
